Tests used:
[1] = test system: STAT1 expression in DU145 and PPC-1 cells; test: Gene expression by Q-RT-PCR, DU145 and PPC-1; type: cell-based, human
Protocol: (§1) Gene expression changes were evaluated in OCI AML2, 0937, HL60, DU145 and PPC-1 cells by real-time Q-RT-PCRas described previously^15, 47. The expression level of STAT1A, STAT1B, TRIM22, OAS1 and IFIT3 before and after incubation of leukemia cells with ivermectin was evaluated.

OCI-AML2 cells = test: Cell death, viability and cell cycle in OCI-AML2 cells; type: cell-based, human
Protocol: (§2) Cell growth and viability was assessed by the MTS assay (Promega, Madison, Wis.) according to the manufacturer's instructions and as previously described.^12 Cell death was measured by Annexin V-fluoroscein isothiocyanate (FITC) and Propidium Iodide (PI; Biovision Research Products, Mountain View, Calif.) staining and flow cytometry according to the manufacturer's instructions and as previously described.^13 To identify CD34+ cells, a normal PBSC sample was co-stained with PE-anti-CD34+ (Beckman Coulter, Marseille France), and APC-anti-CD45 (Becton Dickenson, San Jose Calif.).
Cell cycle analysis was performed as described previously.^15 Briefly, cells were harvested, washed with cold PBS, and resuspended in 80% cold ethanol. Cells were then treated with 100 ng/mL DNase-free RNase A (Invitrogen) at 37° C. for 30 min, washed with cold PBS, and resuspended in PBS with 50 μg/mL propidium iodide. DNA content was analyzed by flow cytometry (FACSCalibur; Becton Dickinson). The percentage of cells in each phase of the cell cycle was calculated with FlowJo version 8.8 (TreeStar, Ashland, Oreg.).

[2] = test system: STAT1 mRNA in U937 and HL60 leukemia cells; test: Gene expression by Q-RT-PCR, U937 and HL60; type: cell-based, human
Protocol: as §1

primary AML samples = test: Clonogenic (methylcellulose colony forming) assay, primary AML; type: cell-based, human; settings: ivermectin 6 μM; in 3/6 primary AML samples
Protocol: To assess clonogenic growth, primary AML cells or granulocyte colony-stimulating factor (G-CSF) mobilized PBSCs (4×10^5/mL) were treated with IVM or buffer control for 24 hours. After treatment, cells were washed and 10^5 cell/mL were plated in duplicate in MethoCult GF H4434 medium (StemCell Technologies, Vancouver, BC) containing 1% methycellulose in IMDM, 30% FCS, 1% bovine serum albumin, 3 U/mL of recombinant human erythropoietin, 10^−4 M of 2-mercaptoethanol, 2 mM of L-glutamine, 50 ng/mL of recombinant human stem cell factor, 10 ng/mL of GM-CSF, and 10 ng/mL of rh IL-3. Alternatively, primary cells were plated directly into MethoCult GF H4434 medium with ivermectin. Seven days (AML samples) or 14 days (normal PBCS) after plating, the number of colonies containing 10 or more cells for AML or over 100 cells for normal samples was counted as previously described.^14
Ivermectin was also evaluated in clonogenic assays in primary normal hematopoietic and AML cells. Ivermectin (6 μM) had minimal effects on the clonogenic growth of normal hematopoetic cells (n=3) with <15% reduction in clonogenic growth. In contrast, ivermectin reduced clonogenic growth by ≧40% in 3/6 primary AML samples (FIG. 1D). Similar effects were noted when primary cells were directly plated into clonogenic assays with ivermectin (FIG. 1G).

dogs = settings: oral; cited from earlier work
monkeys = settings: oral; cited from earlier work
[3] = test system: U937 and TEX leukemia cells; primary AML cells; test: Reactive oxygen species, Carboxy-H2DCFDA staining, sensitive cells; type: cell-based, human
[4] = test system: acute myeloid leukemia (AML) patient samples; test: Cell viability by Annexin V and PI staining, AML patient samples; type: cell-based, human; settings: 48 hours
Protocol: (§3) Primary human acute myeloid leukemia (AML) samples were isolated from fresh bone marrow and peripheral blood samples of consenting patients. Similarly, primary normal hematopoietic cells were obtained from healthy consenting volunteers donating peripheral blood mononuclear cells
(§4) (PBSCs) for stem cell transplantation. The mononuclear cells were isolated from the samples by Ficoll density centrifugation. Primary cells were cultured at 37° C. in IMDM supplemented with 20% FCS and appropriate antibiotics.
as §2
(§5) Given the cytotoxicity of IVM toward leukemia cell lines, its cytotoxicity was compared to primary normal hematopoietic cells and acute myeloid leukemia (AML) patient samples (n=4 intermediate risk cytogenetics, n=1 good risk cytogenetics, and n=1 unknown cytogenetics). […]

[5] = test system: primary normal hematopoietic cells (PBSC); test: Cell viability by Annexin V and PI staining, normal hematopoietic cells; type: cell-based, human; settings: 48 hours, concentrations up to 20 μM
Protocol: as §3, §4, §2, §5

[6] = test system: OCI-AML2 subcutaneous xenografts; test: OCI-AML2 xenograft, intraperitoneal ivermectin: Tunel staining and STAT1 Q-RT-PCR; type: in vivo, mouse
Protocol: In order to measure gene expression changes in vivo, OCI-AML2 cells (2.5×10^5) were injected subcutaneously into the flanks of sub-lethally irradiated NOD/SCID mice. Once tumors were established, mice were treated with ivermectin (7 mg/kg) or vehicle control intraperitoneally for 5 days. After treatment, mice were sacrificed, and tumors harvested. mRNA was extracted and changes in STAT expression were measured by quantitative RT-PCR (QRT-PCR). Evidence of apoptosis was measured by Tunel staining and immunohistochemistry (Pathology Research Program, University Health Network, Toronto, Canada).
Changes in ROS production are indicative of a biological response to ivermectin, but are very difficult to measure in the context of a clinical trial. Therefore, to identify alterations in gene expression that are a result of ROS production and could be used as biomarkers in the context of a clinical trial, gene expression profiling analysis (using Affymetrix HG U133 Plus 2.0 arrays) RNA derived from OCI-AML2 cells treated with ivermectin for 30 hr and 40 hr was undertaken. One hundred and fifty genes were deregulated >4-fold at both time points (33 under-expressed; 117 over-expressed) compared to control. […] Changes in STAT1 expression in tumors from a leukemia xenograft model were also evaluated. […] After treatment, tumors were harvested, mRNA extracted, and STAT1 expression measured by Q-RT PCR.

mice = settings: oral; cited from earlier work
[7] = test system: DU145 prostate cancer cells; test: Cell death by Annexin V and PI staining in DU145 cells; type: cell-based, human; settings: 24 hours
Protocol: as §2

Substance: ivermectin
- STAT1 expression [1]: did not show changes in STAT1 expression
- cell death (OCI-AML2 cells; 24 hours of treatment): induced cell death
- cell cycle (OCI-AML2 cells; times and concentrations that preceded cell death, PI DNA content): induced G2 cell cycle arrest
- STAT1 mRNA [2]: demonstrated increased STAT1 mRNA
- reduction in clonogenic growth (primary AML samples): ≥ 40%
- LD50 (dogs): ~80 mg/kg
- LD50 (monkeys): above 24 mg/kg
- ROS generation ([3]; U937 and TEX cells, 2 hours after treatment): demonstrated increased ROS generation
- ROS generation ([3]; primary AML cells): demonstrated increased ROS generation
- cytotoxicity [4]: cytotoxic to AML patient samples at low micromolar concentrations
- induction of cell death [5]: did not induce cell death
- apoptosis in the subcutaneous tumor, Tunel staining ([6]; 7 mg/kg intraperitoneally for 5 days): increased apoptosis
- STAT1 mRNA in tumors vs vehicle control ([6]; ivermectin for 5 days, Q-RT PCR): increased in two of three tested tumors
- LD50 (mice): 28 to 30 mg/kg
- sensitivity to IVM induced cell death [7]: more resistant to IVM induced cell death
